The values that follow come from patent publication US8519128B2, “Pyripyropene derivatives having an ACAT2-inhibiting activity” (The Kitasato Institute, priority 2007, dated 2013).

The structures appear in SMILES notation. Like-named read-outs stand apart in the source and are kept apart here.

The target of one assay is T1, ACAT 2 (Mus musculus, UniProt O88908).
T1 construct: The source of ACAT 2 enzyme used was a membrane fraction derived from mouse liver microsome; from tissue; host or cells: mouse liver (microsome fraction)
T1 sequence (O88908 1-525): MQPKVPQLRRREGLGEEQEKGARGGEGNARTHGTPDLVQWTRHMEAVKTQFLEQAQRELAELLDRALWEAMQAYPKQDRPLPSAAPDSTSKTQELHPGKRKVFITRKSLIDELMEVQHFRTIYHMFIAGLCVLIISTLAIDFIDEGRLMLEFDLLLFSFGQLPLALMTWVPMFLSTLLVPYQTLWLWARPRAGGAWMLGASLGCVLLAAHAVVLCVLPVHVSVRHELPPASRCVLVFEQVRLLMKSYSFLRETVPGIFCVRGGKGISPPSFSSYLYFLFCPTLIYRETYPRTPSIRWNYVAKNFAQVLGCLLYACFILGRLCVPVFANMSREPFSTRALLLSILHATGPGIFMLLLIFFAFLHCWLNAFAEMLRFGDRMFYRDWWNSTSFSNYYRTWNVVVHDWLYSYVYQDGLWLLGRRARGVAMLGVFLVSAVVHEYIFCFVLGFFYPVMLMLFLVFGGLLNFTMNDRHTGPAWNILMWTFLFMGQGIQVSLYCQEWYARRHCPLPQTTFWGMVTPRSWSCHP
The assay can be described thus: ACAT-inhibiting activity, mouse liver microsome membrane fraction, [14C]oleoyl-CoA. Type of assay: biochemical. To be noted: for Specific activity: (inhibitory activity of test compound)/(inhibitory activity of pyripyropene A): relative to pyripyropene A. The gist of the method: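 Enzyme source: mouse liver microsomal membrane fraction (100000×g pellet) at 5 mg/ml protein in 50 mM Tris-HCl pH 7.8, 1 mM EDTA, 1 mM PMSF; substrate [14C]oleoyl-CoA. Chloroform-extracted lipids resolved by silica TLC in hexane/diethyl ether/acetic acid (70:30:1).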
Background: Microsomes from liver hold many membrane-bound enzymes, among them those of drug oxidation.

For assay [1], the system named is apolipoprotein E-deficient mice. The experiment in a line: Total plasma cholesterol after 14 days of daily oral administration, high-fat feed. Type of assay: in vivo. The note with it: day 14, day 0 taken as 100%, control 212.2%. How it is done: Ten-week old apolipoprotein E-deficient mice (males, purchased from Jackson Laboratories) were kept under cycles of artificial light (day) for 12 hours and dark (night) for 12 hours by appropriately feeding a standard high-fat feed (D12079B, Research Diet). Before starting a test for each test compound, 100 μL of blood were collected from the caudal vein of each animal to measure the total cholesterol concentration in plasma using a commercially available kit (Determiner TC 555, Kyowa Medex). […] The test compound was orally administered daily at the start of the artificial light cycle of each day.
Blood was collected at the start of the artificial light cycle on day 14 of administration of the test compound to measure the total plasma cholesterol. The total plasma cholesterol before administration of the test compound (on day 0) was taken as 100%, and the percent increase in total plasma cholesterol on day 14 after administration of the test compound started was calculated.

[2] abbreviates: mouse liver microsome, 5 minutes at 37° C.

Broadly, the IC50 is the concentration needed to halve the response being measured. A low value points to higher potency. Take `COc1ccc(CCC(=O)O[C@H]2CC3C(C)(COC(C)=O)[C@@H](OC(C)=O)CC[C@]3(C)C3[C@@H](O)c4c(cc(-c5cccnc5)oc4=O)O[C@@]32C)cc1` (some centres unmarked) [PRD 084, 7-O-3-(4-methoxyphenyl)propionyl-7-deacetylpyripyropene A]: on ACAT 2 (setting [2]), the IC50 was in the range of 10 to 100 nM. In addition, the “Specific activity: (inhibitory activity of test compound)/(inhibitory activity of pyripyropene A)” value on ACAT 2 was “+++ (50 > specific activity > 10)”.

As for `CC(=O)OCC1(C)C2C[C@H](OC(=O)C3CCC(C)CC3)[C@@]3(C)Oc4cc(-c5cccnc5)oc(=O)c4[C@H](O)C3[C@@]2(C)CC[C@@H]1OC(C)=O` (stereo partly drawn) [PRD 085, 7-O-4-trans-methylcyclohexanecarboxyl-7-deacetylpyripyropene A], the IC50 on ACAT 2 (setting [2]) lay within 10 to 100 nM. The “Specific activity: (inhibitory activity of test compound)/(inhibitory activity of pyripyropene A)” value at ACAT 2 was “+ (5 > specific activity > 1)”.

In turn, `COc1ccc(CC(=O)O[C@H]2CC3C(C)(COC(C)=O)[C@@H](OC(C)=O)CC[C@]3(C)C3[C@@H](O)c4c(cc(-c5cccnc5)oc4=O)O[C@@]32C)cc1` (some centres unmarked) [PRD 087, 7-O-4-methoxyphenylacetyl-7-deacetylpyripyropene A] registered an IC50 at ACAT 2 (setting [2]) of 100 to 1000 nM. The “Specific activity: (inhibitory activity of test compound)/(inhibitory activity of pyripyropene A)” value at ACAT 2 is recorded as “+ (5 > specific activity > 1)”.

The molecule `CC(=O)OCC1(C)C2C[C@H](OC(=O)Cn3cc(C)c(=O)[nH]c3=O)[C@@]3(C)Oc4cc(-c5cccnc5)oc(=O)c4[C@H](O)C3[C@@]2(C)CC[C@@H]1OC(C)=O` (some centres unmarked) [PRD 090, 7-O-1-thymineacetyl-7-deacetylpyripyropene A] displayed an IC50 against ACAT 2 (setting [2]) of 100 to 1000 nM. Moreover, on ACAT 2, the “Specific activity: (inhibitory activity of test compound)/(inhibitory activity of pyripyropene A)” value is listed as “+ (5 > specific activity > 1)”.

As for `CC(=O)OCC1(C)C2C[C@H](OC(=O)Cn3cnnn3)[C@@]3(C)Oc4cc(-c5cccnc5)oc(=O)c4[C@H](O)C3[C@@]2(C)CC[C@@H]1OC(C)=O` (some centres unmarked) [PRD 092, 7-O-2-(1H-tetrazol-1-yl)acetyl-7-deacetylpyripyropene A], at ACAT 2, the IC50 lay within 100 to 1000 nM and the “Specific activity: (inhibitory activity of test compound)/(inhibitory activity of pyripyropene A)” value is on record as “+ (5 > specific activity > 1)”.

The molecule `CC(=O)OCC1(C)C2C[C@H](OC(=O)CCCCO)[C@@]3(C)Oc4cc(-c5cccnc5)oc(=O)c4[C@H](O)C3[C@@]2(C)CC[C@@H]1OC(C)=O` (some centres unmarked) [PRD 093, 7-O-5-hydroxypentanoyl-7-deacetylpyripyropene A] yielded an IC50 against ACAT 2 (setting [2]) of 100 to 1000 nM. Further, at ACAT 2, the “Specific activity: (inhibitory activity of test compound)/(inhibitory activity of pyripyropene A)” value is given as “+ (5 > specific activity > 1)”.

`CC(=O)OCC1(C)C2C[C@H](OC(=O)CCN3CCCCC3)[C@@]3(C)Oc4cc(-c5cccnc5)oc(=O)c4[C@H](O)C3[C@@]2(C)CC[C@@H]1OC(C)=O` (some centres unmarked) [PRD 095, 7-O-3-(pyperidin-1-yl)propionyl-7-deacetylpyripyropene A] came in with a half-maximal inhibitory concentration (IC50) against ACAT 2 (setting [2]) of 100 to 1000 nM. At ACAT 2, the “Specific activity: (inhibitory activity of test compound)/(inhibitory activity of pyripyropene A)” value was “+ (5 > specific activity > 1)”.

As to `CC(=O)OCC1(C)C2C[C@H](OC(=O)c3cnccn3)[C@@]3(C)Oc4cc(-c5cccnc5)oc(=O)c4[C@H](O)C3[C@@]2(C)CC[C@@H]1OC(C)=O` (some centres unmarked) [PRD 096, 7-O-pyrazinecarboxyl-7-deacetylpyripyropene A], the IC50 against ACAT 2 (setting [2]) was 100 to 1000 nM. Moreover, the “Specific activity: (inhibitory activity of test compound)/(inhibitory activity of pyripyropene A)” value on ACAT 2 is “+ (5 > specific activity > 1)”.

As for `CC(=O)OCC1(C)C2C[C@H](OC(=O)c3ccc(=O)oc3)[C@@]3(C)Oc4cc(-c5cccnc5)oc(=O)c4[C@H](O)C3[C@@]2(C)CC[C@@H]1OC(C)=O` (some centres unmarked) [PRD 098, 7-O-2-pyrone-5-carboxyl-7-deacetylpyripyropene A], the IC50 against ACAT 2 (setting [2]) was 100 to 1000 nM. Besides, the “Specific activity: (inhibitory activity of test compound)/(inhibitory activity of pyripyropene A)” value on ACAT 2 is reported as “+ (5 > specific activity > 1)”.

As for `CC(=O)OCC1(C)C2C[C@H](OC(=O)CCc3ccccc3)[C@@]3(C)Oc4cc(-c5cccnc5)oc(=O)c4[C@H](O)C3[C@@]2(C)CC[C@@H]1OC(C)=O` (some centres unmarked) [PRD 100, 7-O-3-phenylpropionyl-7-deacetylpyripyropene A], the IC50 on ACAT 2 (setting [2]) is less than 10 nM. For the same molecule, the “Specific activity: (inhibitory activity of test compound)/(inhibitory activity of pyripyropene A)” value at ACAT 2 is on record as “+++ (50 > specific activity > 10)”.

Take `CC(=O)OCC1(C)C2C[C@H](OC(=O)Cc3nnn[nH]3)[C@@]3(C)Oc4cc(-c5cccnc5)oc(=O)c4[C@H](O)C3[C@@]2(C)CC[C@@H]1OC(C)=O` (some centres unmarked) [PRD 102, 7-O-(1H-tetrazol-5-yl)acetyl-7-deacetylpyripyropene A]: the IC50 on ACAT 2 (setting [2]) was in the range of 100 to 1000 nM. Besides, on ACAT 2, the “Specific activity: (inhibitory activity of test compound)/(inhibitory activity of pyripyropene A)” value is “+ (5 > specific activity > 1)”.

Molecule `COc1ccc(CCCC(=O)O[C@H]2CC3C(C)(COC(C)=O)[C@@H](OC(C)=O)CC[C@]3(C)C3[C@@H](O)c4c(cc(-c5cccnc5)oc4=O)O[C@@]32C)cc1` (some centres unmarked) [PRD 103, 7-O-4-(4-methoxyphenyl)butytyl-7-deacetylpyripyropene A] registered an IC50 at ACAT 2 (setting [2]) of less than 10 nM. Moreover, the “Specific activity: (inhibitory activity of test compound)/(inhibitory activity of pyripyropene A)” value at ACAT 2 is listed as “+++ (50 > specific activity > 10)”.

As for `CC(=O)OCC1(C)C2C[C@H](OC(=O)CCN3CCN(C)CC3)[C@@]3(C)Oc4cc(-c5cccnc5)oc(=O)c4[C@H](O)C3[C@@]2(C)CC[C@@H]1OC(C)=O` (some centres unmarked) [PRD 104, 7-O-3-(4-methylpiperazin-1-yl)propionyl-7-deacetylpyripyropene A], on ACAT 2 (setting [2]), the IC50 was in the range of 100 to 1000 nM. The “Specific activity: (inhibitory activity of test compound)/(inhibitory activity of pyripyropene A)” value at ACAT 2 was “+ (5 > specific activity > 1)”.

`CC(=O)OCC1(C)C2C[C@H](OC(=O)c3ccc(Br)c(F)c3)[C@@]3(C)Oc4cc(-c5cccnc5)oc(=O)c4[C@H](O)C3[C@@]2(C)CC[C@@H]1OC(C)=O` (some centres unmarked) [PRD 105, 7-O-p-bromo-m-fluorobenzoyl-7-deacetylpyripyropene A] yielded a half-maximal inhibitory concentration (IC50) against ACAT 2 (setting [2]) of less than 10 nM. The “Specific activity: (inhibitory activity of test compound)/(inhibitory activity of pyripyropene A)” value on ACAT 2 is “+++ (50 > specific activity > 10)”.

For `COCOCC(=O)O[C@H]1CC2C(C)(COC(C)=O)[C@@H](OC(C)=O)CC[C@]2(C)C2[C@@H](O)c3c(cc(-c4cccnc4)oc3=O)O[C@@]21C` (some centres unmarked) [PRD 106, 7-O-methoxymethoxyacetyl-7-deacetylpyripyropene A], on ACAT 2, the IC50 was 100 to 1000 nM and the “Specific activity: (inhibitory activity of test compound)/(inhibitory activity of pyripyropene A)” value is on record as “+ (5 > specific activity > 1)”.

On ACAT 2 (setting [2]), `CC(=O)OCC1(C)C2C[C@H](OC(=O)CO)[C@@]3(C)Oc4cc(-c5cccnc5)oc(=O)c4[C@H](O)C3[C@@]2(C)CC[C@@H]1OC(C)=O` (some centres unmarked) [PRD 107, 7-O-hydroxyacetyl-7-deacetylpyripyropene A] yielded an IC50 of 100 to 1000 nM. Moreover, at ACAT 2, the “Specific activity: (inhibitory activity of test compound)/(inhibitory activity of pyripyropene A)” value was “+ (5 > specific activity > 1)”.

With `COCCOCOCC(=O)O[C@H]1CC2C(C)(COC(C)=O)[C@@H](OC(C)=O)CC[C@]2(C)C2[C@@H](O)c3c(cc(-c4cccnc4)oc3=O)O[C@@]21C` (some centres unmarked) [PRD 108, 7-O-methoxyethoxymethoxyacetyl-7-deacetylpyripyropene A], at ACAT 2 (setting [2]), the IC50 is 100 to 1000 nM. Also, at ACAT 2, the “Specific activity: (inhibitory activity of test compound)/(inhibitory activity of pyripyropene A)” value is “+ (5 > specific activity > 1)”.

As for `CC(=O)OCC1(C)C2C[C@H](OC(=O)c3ccc(Br)cc3F)[C@@]3(C)Oc4cc(-c5cccnc5)oc(=O)c4[C@H](O)C3[C@@]2(C)CC[C@@H]1OC(C)=O` (some centres unmarked) [PRD 109, 7-O-p-bromo-o-fluorobenzoyl-7-deacetylpyripyropene A], the concentration for half-maximal inhibition (IC50) against ACAT 2 (setting [2]) is less than 10 nM. The “Specific activity: (inhibitory activity of test compound)/(inhibitory activity of pyripyropene A)” value at ACAT 2 was “+++ (50 > specific activity > 10)”.

Take `CC(=O)OCC1(C)C(OC(C)=O)CC[C@@]2(C)C1C[C@H](OC(=O)c1ccc(C(N)=O)cc1)[C@@]1(C)Oc3cc(-c4cccnc4)oc(=O)c3[C@H](O)C21` (some centres unmarked) [PRD 111]: the IC50 against ACAT 2 (setting [2]) fell in the range of 100 to 1000 nM. In addition, the “Specific activity: (inhibitory activity of test compound)/(inhibitory activity of pyripyropene A)” value at ACAT 2 was “+ (5 > specific activity > 1)”.

In the case of `CC(=O)OCC1(C)C2C[C@H](OC(=O)c3ccc(C#N)c(F)c3)[C@@]3(C)Oc4cc(-c5cccnc5)oc(=O)c4[C@H](O)C3[C@@]2(C)CC[C@@H]1OC(C)=O` (some centres unmarked) [PRD 112, 7-O-p-cyano-m-fluorobenzoyl-7-deacetylpyripyropene A], at ACAT 2, the “Specific activity: (inhibitory activity of test compound)/(inhibitory activity of pyripyropene A)” value is on record as “+++ (50 > specific activity > 10)”.

On to `CC(=O)OCC1(C)C(OC(C)=O)CCC2(C)C1CC(OC(C)=O)C1(C)Oc3cc(-c4cccnc4)oc(=O)c3C(O)C21` (centres unmarked) [Pyripyropene A, reference compound], for which the “total plasma cholesterol at day 14 (% of day 0)” value in assay [1] (10 mg/kg oral daily) stood at 177.3%; in assay [1] (50 mg/kg oral daily) it was 174.0%.
